Values after ≈ are worked out from the molar mass of the structure shown.
Legend:
[1] = system: Salmonella enteritidis; test: Antibacterial activity against Salmonella enteritidis by microdilution technique; assay type: functional, Salmonella enterica subsp. enterica serovar Enteritidis; conditions: Salmonella enterica
[2] = system: Bacillus subtilis; test: Antibacterial activity against Bacillus subtilis ATCC 10907 by microdilution technique; assay type: functional
[3] = system: Talaromyces funiculosus; test: Antifungal activity against Penicillium funiculosum ATCC 36839 by microdilution technique; assay type: functional
[4] = system: Aspergillus niger; test: Antifungal activity against Aspergillus niger ATCC 6275 by microdilution technique; assay type: functional
[5] = system: Penicillium ochrochloron; test: Antifungal activity against Penicillium ochrochloron ATCC 9112 by microdilution technique; assay type: functional
[6] = system: Staphylococcus epidermidis; test: Antibacterial activity against Staphylococcus epidermidis ATCC 12228 by microdilution technique; assay type: functional
[7] = system: Alternaria alternata; test: Antifungal activity against Alternaria alternata DSM 2006 by microdilution technique; assay type: functional
[8] = system: Micrococcus luteus; test: Antibacterial activity against Micrococcus flavus ATCC 10240 by microdilution technique; assay type: functional
[9] = system: Aspergillus flavus; test: Antifungal activity against Aspergillus flavus ATCC 9643 by microdilution technique; assay type: functional
[10] = system: Aspergillus ochraceus; test: Antifungal activity against Aspergillus ochraceus ATCC 12066 by microdilution technique; assay type: functional
[11] = system: Fusarium tricinctum; test: Antifungal activity against Fusarium tricinctum CBS 514478 by microdilution technique; assay type: functional
[12] = system: Escherichia coli; test: Antibacterial activity against Escherichia coli ATCC 35210 by microdilution technique; assay type: functional
[13] = system: Pseudomonas tolaasii; test: Antibacterial activity against Pseudomonas tolaasii by microdilution technique; assay type: functional
[14] = system: Trichoderma viride; test: Antifungal activity against Trichoderma viride IAM 5061 by microdilution technique; assay type: functional

| SMILES | MBC [1] | MIC [1] | MBC [2] | MIC [2] | MFC [3] | MIC [3] | MFC [4] | MIC [4] | MFC [5] | MIC [5] | MBC [6] | MIC [6] | MFC [7] | MIC [7] | MBC [8] | MIC [8] | MFC [9] | MIC [9] | MFC [10] | MIC [10] | further results |
| --- | --- | --- | --- | --- | --- | --- | --- | --- | --- | --- | --- | --- | --- | --- | --- | --- | --- | --- | --- | --- | --- |
| C=C(C(=O)O[C@H]1C/C(C)=C/CC/C(CO)=C/[C@H]2OC(=O)[C@H](C)[C@H]12)C(O)CO (stereo partly drawn) | 0.3 µg/mL (≈ 0.789 µM) | 0.3 µg/mL (≈ 0.789 µM) | 0.2 µg/mL (≈ 0.526 µM) | 0.2 µg/mL (≈ 0.526 µM) | 0.3 µg/mL (≈ 0.789 µM) | 0.2 µg/mL (≈ 0.526 µM) | 0.3 µg/mL (≈ 0.789 µM) | 0.2 µg/mL (≈ 0.526 µM) | 0.2 µg/mL (≈ 0.526 µM) | 0.1 µg/mL (≈ 0.263 µM) | 0.4 µg/mL (≈ 1.05 µM) | 0.4 µg/mL (≈ 1.05 µM) | 0.2 µg/mL (≈ 0.526 µM) | 0.1 µg/mL (≈ 0.263 µM) | 0.3 µg/mL (≈ 0.789 µM) | 0.2 µg/mL (≈ 0.526 µM) | 0.2 µg/mL (≈ 0.526 µM) | 0.1 µg/mL (≈ 0.263 µM) | 0.2 µg/mL (≈ 0.526 µM) | 0.1 µg/mL (≈ 0.263 µM) | MFC [11]: 0.2 µg/mL (≈ 0.526 µM); MIC [11]: 0.1 µg/mL (≈ 0.263 µM); MBC [12]: 0.3 µg/mL (≈ 0.789 µM); MIC [12]: 0.2 µg/mL (≈ 0.526 µM); MBC [13]: 0.3 µg/mL (≈ 0.789 µM); MIC [13]: 0.2 µg/mL (≈ 0.526 µM); MFC [14]: 0.3 µg/mL (≈ 0.789 µM); MIC [14]: 0.2 µg/mL (≈ 0.526 µM) |
| CC(=O)OC/C=C(/CO)C(=O)O[C@H]1C/C(C)=C/CC/C(CO)=C/[C@H]2OC(=O)[C@H](C)[C@H]12 | 0.3 µg/mL (≈ 0.71 µM) | 0.3 µg/mL (≈ 0.71 µM) | 0.3 µg/mL (≈ 0.71 µM) | 0.2 µg/mL (≈ 0.473 µM) | 0.3 µg/mL (≈ 0.71 µM) | 0.2 µg/mL (≈ 0.473 µM) | 0.3 µg/mL (≈ 0.71 µM) | 0.2 µg/mL (≈ 0.473 µM) | 0.2 µg/mL (≈ 0.473 µM) | 0.1 µg/mL (≈ 0.237 µM) | 0.5 µg/mL (≈ 1.18 µM) | 0.4 µg/mL (≈ 0.947 µM) | 0.3 µg/mL (≈ 0.71 µM) | 0.2 µg/mL (≈ 0.473 µM) | 0.3 µg/mL (≈ 0.71 µM) | 0.2 µg/mL (≈ 0.473 µM) | 0.2 µg/mL (≈ 0.473 µM) | 0.2 µg/mL (≈ 0.473 µM) | 0.2 µg/mL (≈ 0.473 µM) | 0.1 µg/mL (≈ 0.237 µM) | MFC [11]: 0.3 µg/mL (≈ 0.71 µM); MIC [11]: 0.2 µg/mL (≈ 0.473 µM); MBC [12]: 0.3 µg/mL (≈ 0.71 µM); MIC [12]: 0.3 µg/mL (≈ 0.71 µM); MBC [13]: 0.3 µg/mL (≈ 0.71 µM); MIC [13]: 0.2 µg/mL (≈ 0.473 µM); MFC [14]: 0.3 µg/mL (≈ 0.71 µM); MIC [14]: 0.2 µg/mL (≈ 0.473 µM) |
| C=C(CCO)C(=O)O[C@H]1C[C@]2(C)C([C@H](C=O)CC[C@H]2O)[C@H]2OC(=O)[C@H](C)[C@H]12 (stereo partly drawn) | 0.4 µg/mL (≈ 1.05 µM) | 0.4 µg/mL (≈ 1.05 µM) | 0.3 µg/mL (≈ 0.789 µM) | 0.2 µg/mL (≈ 0.526 µM) | 0.4 µg/mL (≈ 1.05 µM) | 0.3 µg/mL (≈ 0.789 µM) | 0.3 µg/mL (≈ 0.789 µM) | 0.2 µg/mL (≈ 0.526 µM) | 0.4 µg/mL (≈ 1.05 µM) | 0.3 µg/mL (≈ 0.789 µM) | 0.5 µg/mL (≈ 1.31 µM) | 0.4 µg/mL (≈ 1.05 µM) | 0.3 µg/mL (≈ 0.789 µM) | 0.2 µg/mL (≈ 0.526 µM) | 0.3 µg/mL (≈ 0.789 µM) | 0.2 µg/mL (≈ 0.526 µM) | 0.3 µg/mL (≈ 0.789 µM) | 0.2 µg/mL (≈ 0.526 µM) | 0.3 µg/mL (≈ 0.789 µM) | 0.2 µg/mL (≈ 0.526 µM) | MFC [11]: 0.3 µg/mL (≈ 0.789 µM); MIC [11]: 0.2 µg/mL (≈ 0.526 µM); MBC [12]: 0.4 µg/mL (≈ 1.05 µM); MIC [12]: 0.4 µg/mL (≈ 1.05 µM); MBC [13]: 0.5 µg/mL (≈ 1.31 µM); MIC [13]: 0.4 µg/mL (≈ 1.05 µM); MFC [14]: 0.4 µg/mL (≈ 1.05 µM); MIC [14]: 0.3 µg/mL (≈ 0.789 µM) |
| C=C(CCO)C(=O)O[C@H]1C/C(C)=C/CC/C(CO)=C/[C@H]2OC(=O)[C@H](C)[C@H]12 | 0.3 µg/mL (≈ 0.823 µM) | 0.3 µg/mL (≈ 0.823 µM) | 0.2 µg/mL (≈ 0.549 µM) | 0.2 µg/mL (≈ 0.549 µM) | 0.3 µg/mL (≈ 0.823 µM) | 0.2 µg/mL (≈ 0.549 µM) | 0.3 µg/mL (≈ 0.823 µM) | 0.2 µg/mL (≈ 0.549 µM) | 0.2 µg/mL (≈ 0.549 µM) | 0.1 µg/mL (≈ 0.274 µM) | 0.4 µg/mL (≈ 1.1 µM) | 0.4 µg/mL (≈ 1.1 µM) | 0.3 µg/mL (≈ 0.823 µM) | 0.2 µg/mL (≈ 0.549 µM) | 0.3 µg/mL (≈ 0.823 µM) | 0.2 µg/mL (≈ 0.549 µM) | 0.2 µg/mL (≈ 0.549 µM) | 0.1 µg/mL (≈ 0.274 µM) | 0.2 µg/mL (≈ 0.549 µM) | 0.1 µg/mL (≈ 0.274 µM) | MFC [11]: 0.3 µg/mL (≈ 0.823 µM); MIC [11]: 0.2 µg/mL (≈ 0.549 µM); MBC [12]: 0.2 µg/mL (≈ 0.549 µM); MIC [12]: 0.2 µg/mL (≈ 0.549 µM); MBC [13]: 0.3 µg/mL (≈ 0.823 µM); MIC [13]: 0.3 µg/mL (≈ 0.823 µM); MFC [14]: 0.3 µg/mL (≈ 0.823 µM); MIC [14]: 0.2 µg/mL (≈ 0.549 µM) |
| C=C(CCO)C(=O)O[C@H]1C[C@]2(C)C([C@H]3OC(=O)[C@H](C)[C@H]13)[C@@H](C=O)CC[C@H]2O (stereo partly drawn) | 0.4 µg/mL (≈ 1.05 µM) | 0.4 µg/mL (≈ 1.05 µM) | 0.3 µg/mL (≈ 0.789 µM) | 0.2 µg/mL (≈ 0.526 µM) | 0.4 µg/mL (≈ 1.05 µM) | 0.3 µg/mL (≈ 0.789 µM) | 0.3 µg/mL (≈ 0.789 µM) | 0.2 µg/mL (≈ 0.526 µM) | 0.4 µg/mL (≈ 1.05 µM) | 0.3 µg/mL (≈ 0.789 µM) | 0.5 µg/mL (≈ 1.31 µM) | 0.4 µg/mL (≈ 1.05 µM) | 0.3 µg/mL (≈ 0.789 µM) | 0.2 µg/mL (≈ 0.526 µM) | 0.3 µg/mL (≈ 0.789 µM) | 0.2 µg/mL (≈ 0.526 µM) | 0.3 µg/mL (≈ 0.789 µM) | 0.2 µg/mL (≈ 0.526 µM) | 0.3 µg/mL (≈ 0.789 µM) | 0.2 µg/mL (≈ 0.526 µM) | MFC [11]: 0.3 µg/mL (≈ 0.789 µM); MIC [11]: 0.2 µg/mL (≈ 0.526 µM); MBC [12]: 0.4 µg/mL (≈ 1.05 µM); MIC [12]: 0.4 µg/mL (≈ 1.05 µM); MBC [13]: 0.3 µg/mL (≈ 0.789 µM); MIC [13]: 0.2 µg/mL (≈ 0.526 µM); MFC [14]: 0.5 µg/mL (≈ 1.31 µM); MIC [14]: 0.4 µg/mL (≈ 1.05 µM) |
| CN[C@@H]1[C@H](O[C@H]2[C@H](O[C@H]3[C@H](O)[C@@H](O)[C@H](N=C(N)N)[C@@H](O)[C@@H]3N=C(N)N)O[C@@H](C)[C@]2(O)C=O)O[C@@H](CO)[C@H](O)[C@H]1O (stereo in doubt) [STREPTOMYCIN] | 1 µg/mL (≈ 1.72 µM) | 1 µg/mL (≈ 1.72 µM) | 0.5 µg/mL (≈ 0.86 µM) | 0.5 µg/mL (≈ 0.86 µM) | – | – | – | – | – | – | 1 µg/mL (≈ 1.72 µM) | 1 µg/mL (≈ 1.72 µM) | – | – | 1 µg/mL (≈ 1.72 µM) | 0.5 µg/mL (≈ 0.86 µM) | – | – | – | – | MBC [12]: 1 µg/mL (≈ 1.72 µM); MIC [12]: 0.5 µg/mL (≈ 0.86 µM); MBC [13]: 2 µg/mL (≈ 3.44 µM); MIC [13]: 1 µg/mL (≈ 1.72 µM) |
| Clc1ccc(COC(Cn2ccnc2)c2ccc(Cl)cc2Cl)c(Cl)c1 (stereo not drawn) [MICONAZOLE] | – | – | – | – | 5 µg/mL (≈ 12 µM) | 2 µg/mL (≈ 4.81 µM) | 4 µg/mL (≈ 9.61 µM) | 1.5 µg/mL (≈ 3.6 µM) | 5 µg/mL (≈ 12 µM) | 2 µg/mL (≈ 4.81 µM) | – | – | 1 µg/mL (≈ 2.4 µM) | 0.2 µg/mL (≈ 0.481 µM) | – | – | 2 µg/mL (≈ 4.81 µM) | 0.5 µg/mL (≈ 1.2 µM) | 4 µg/mL (≈ 9.61 µM) | 1.5 µg/mL (≈ 3.6 µM) | MFC [11]: 1 µg/mL (≈ 2.4 µM); MIC [11]: 0.2 µg/mL (≈ 0.481 µM); MFC [14]: 2 µg/mL (≈ 4.81 µM); MIC [14]: 2 µg/mL (≈ 4.81 µM) |
